Data taken from US10294229B2, “Heteroaryl substituted aminopyridine compounds” (BRISTOL-MYERS SQUIBB COMPANY, priority 2015, dated 2019).

Experiments:
[1] = target: IRAK4 (Homo sapiens (Human), UniProt Q9NWZ3); assay: IRAK4 Inhibition Assay; assay type: biochemical; settings: ATP 500 μM; IRAK4 0.6 nM
Procedure, shortened: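 Enzyme 0.6 nM, ATP 500 μM, FL-peptide 1.5 μM, DMSO 1.6%; HEPES pH 7.2/MgCl2/Brij 35/DTT buffer. RT, 60 min, EDTA stop. Mobility-shift product/substrate ratio; % inhib vs no-enzyme and vehicle controls.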

[2] = tested on: Human whole blood stimulated with a TLR2 agonist (lipoteichoic acid), IL-6 levels; assay: IRAK4 Whole Blood Assay; assay type: cell-based; settings: lipoteichoic acid 10 μg/mL
Protocol: Human whole blood containing the anti-coagulant ACD-A was plated in 384-well plate (25 μL/well) and incubated with compounds for 60 minutes at 37° C. in a 5% CO2 incubator. The blood was stimulated with a TLR2 agonist, 10 μg/mL final concentration of lipoteichoic acid (Invivogen, San Diego, Calif.) in 25 μL RPMI (Gibco) for 5 hours in a 5% CO2 incubator. At the end of the incubation, plates were centrifuged at 2300 rpm for 5 minutes. Supernatants were harvested and analyzed for IL-6 levels by Flow Cytometry beads assay (BD Biosciences, San Jose, Calif.).

IRAK4, sequence (Q9NWZ3 whole entry, species assumed): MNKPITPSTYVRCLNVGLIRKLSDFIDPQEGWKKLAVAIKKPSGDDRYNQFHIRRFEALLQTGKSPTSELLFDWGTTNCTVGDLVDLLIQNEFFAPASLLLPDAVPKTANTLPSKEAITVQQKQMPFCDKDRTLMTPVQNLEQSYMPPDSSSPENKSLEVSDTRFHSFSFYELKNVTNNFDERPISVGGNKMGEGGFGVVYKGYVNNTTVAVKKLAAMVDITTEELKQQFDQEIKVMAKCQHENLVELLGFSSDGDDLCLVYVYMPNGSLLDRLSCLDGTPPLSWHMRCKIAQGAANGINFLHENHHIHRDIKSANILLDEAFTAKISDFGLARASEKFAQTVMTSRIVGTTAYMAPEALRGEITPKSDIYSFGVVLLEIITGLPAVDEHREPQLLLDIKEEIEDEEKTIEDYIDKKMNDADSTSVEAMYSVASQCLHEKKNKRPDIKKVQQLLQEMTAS

IC50 [1] [nM] | EC50 ([2]; Homo sapiens) [nM] | EC50 [2] [nM] | SMILES
14 | 850 |  | CC(F)Cc1cn(-c2cnc(-n3cnc4cc(C#N)cnc43)cc2NC(C)C)nn1 (single isomer, unassigned) [Example 291, 3-(5-(4-(2-fluoropropyl)-1H-1,2,3-triazol-1-yl)-4-(isopropylamino)pyridin-2-yl)-3H-imidazo[4,5-b]pyridine-6-carbonitrile]
2 | 1120 |  | CC(C)Nc1cc(-n2ncc3cc(C#N)cnc32)ncc1-n1cc(C2CCC(NC(=O)OC(C)(C)C)CC2)nn1 (stereo not drawn) [Example 342, tert-butyl ((1s,4s)-4-(1-(6-(5-cyano-1H-pyrazolo [3,4-b]pyridin-1-yl)-4-(isopropylamino)pyridin-3-yl)-1H-1,2,3-triazol-4-yl)cyclohexyl) carbamate]
5 |  | 1920 | CC(C)Nc1cc(-n2ncc3cc(C#N)cnc32)ncc1-c1cn([C@@H](C)[C@H](C)O)nn1 (single isomer, unassigned) [Example 91]
3 | 930 |  | CCCCc1cn(-c2cnc(-n3ncc4cc(C#N)cnc43)cc2NC(C)C)nn1 [Example 320, 1-(5-(4-butyl-1H-1,2,3-triazol-1-yl)-4-(isopropylamino)pyridin-2-yl)-1H-pyrazolo[3,4-b]pyridine-5-carbonitrile]
13 | 2260 |  | CCCc1cn(-c2cnc(-n3ncc4cc(Cl)cnc43)cc2NC(C)C)nn1 [Example 282, 2-(5-chloro-1H-pyrazolo[3,4-b]pyridin-1-yl)-N-isopropyl-5-(4-propyl-1H-1,2,3-triazol-1-yl)pyridin-4-amine]
3 | 2130 |  | CC(C)Nc1cc(-n2ccc3cncnc32)ncc1-c1cn(CCCCCN)nn1 [Example 5, 5-(1-(5-aminopentyl)-1H-1,2,3-triazol-4-yl)-N-isopropyl-2-(7H-pyrrolo[2,3-d]pyrimidin-7-yl)pyridin-4-amine]
11 | 990 |  | CC(C)Nc1cc(-n2ncc3cc(C#N)cnc32)ncc1-c1cn(CC2COC2)cn1 [Example 236, 1-(4-(isopropylamino)-5-(1-(oxetan-3-ylmethyl)-1H-imidazol-4-yl)pyridin-2-yl)-1H-pyrazolo[3,4-b]pyridine-5-carbonitrile]
10 | 980 |  | COCC(O)Cn1cc(-c2cnc(-n3ncc4cc(C#N)cnc43)cc2NC(C)C)nn1 (stereo not drawn) [Example 133, 1-(5-(1-(2-hydroxy-3-methoxypropyl)-1H-1,2,3-triazol-4-yl)-4-(isopropylamino)pyridin-2-yl)-1H-pyrazolo[3,4-b]pyridine-5-carbonitrile]
13 | 1860 |  | CC(C)Nc1cc(-n2ncc3cc(C#N)cnc32)ncc1-c1cn(C2CN(C(=O)OC(C)(C)C)C2)nn1 [Example 113, tert-butyl 3-(4-(6-(5-cyano-1H-pyrazolo [3,4-b]pyridin-1-yl)-4-(isopropylamino)pyridin-3-yl)-1H-1,2,3-triazol-1-yl)azetidine-1-carboxylate]
 | 1710 |  | CC(F)Cc1cn(-c2cnc(-n3ncc4cc(C#N)cnc43)cc2NC(C)C)nn1 (stereo not drawn) [Example 294, 1-(5-(4-(2-fluoropropyl)-1H-1,2,3-triazol-1-yl)-4-(isopropylamino)pyridin-2-yl)-1H-pyrazolo[3,4-b]pyridine-5-carbonitrile]
 | 950 |  | CC(C)Nc1cc(-n2ncc3cc(C#N)cnc32)ncc1-c1cn(CCN)nn1 [Example 172, 1-(5-(1-(2-aminoethyl)-1H-1,2,3-triazol-4-yl)-4-(isopropylamino)pyridin-2-yl)-1H-pyrazolo[3,4-b]pyridine-5-carbonitrile]
 | 380 |  | C[C@@H](CO)Nc1cc(-n2ncc3cc(C#N)cnc32)ncc1-n1cc(CCC(C)(C)O)nn1 [Example 376, (S)-1-(5-(4-(3-hydroxy-3-methylbutyl)-1H-1,2,3-triazol-1-yl)-4-((1-hydroxypropan-2-yl)amino)pyridin-2-yl)-1H-pyrazolo[3,4-b]pyridine-5-carbonitrile]
 | 490 |  | CC(C)(O)CCc1cn(-c2cnc(-n3ncc4cc(C#N)cnc43)cc2NC2CCC(O)CC2)nn1 (stereo not drawn) [Example 385, 1-(5-(4-(3-hydroxy-3-methylbutyl)-1H-1,2,3-triazol-1-yl)-4-(((1 s,4s)-4-hydroxycyclohexyl)amino)pyridin-2-yl)-1H-pyrazolo[3,4-b]pyridine-5-carbonitrile]
26 |  |  | CC(C)Nc1cc(-n2ncc3cc(C#N)cnc32)ncc1-n1cc(CCN)nn1 [Example 328, 1-(5-(4-(2-aminoethyl)-1H-1,2,3-triazol-1-yl)-4-(isopropylamino)pyridin-2-yl)-1H-pyrazolo[3,4-b]pyridine-5-carbonitrile]
21 |  |  | CC(C)Nc1cc(-n2ncc3cc(C#N)cnc32)ncc1-c1cn(CC(=O)N2CCOCC2)cn1 [Example 231, 1-(4-(isopropylamino)-5-(1-(2-morpholino-2-oxoethyl)-1H-imidazol-4-yl)pyridin-2-yl)-1H-pyrazolo[3,4-b]pyridine-5-carbonitrile]
157 |  |  | CCCc1cn(-c2cnc(-n3cnc4cc(C#N)cnc43)cc2N[C@H](C)CO)nn1 [Example 286, (R)-3-(4-((1-hydroxypropan-2-yl)amino)-5-(4-propyl-1H-1,2,3-triazol-1-yl)pyridin-2-yl)-3H-imidazo[4,5-b]pyridine-6-carbonitrile]
29 |  |  | CC(C)Nc1cc(-n2ncc3cc(C#N)cnc32)ncc1-n1cc(CCO)nn1 [Example 302, 1-(5-(4-(2-hydroxyethyl)-1H-1,2,3-triazol-1-yl)-4-(isopropylamino)pyridin-2-yl)-1H-pyrazolo[3,4-b]pyridine-5-carbonitrile]
17 |  |  | CCCc1cn(-c2cnc(-n3ncc4cc(C#N)cnc43)cc2NC2COC2)nn1 [Example 276, 1-(4-(oxetan-3-ylamino)-5-(4-propyl-1H-1,2,3-triazol-1-yl)pyridin-2-yl)-1H-pyrazolo[3,4-b]pyridine-5-carbonitrile]
11 |  |  | CCCn1cc(-c2cnc(-n3ncc4cc(Cl)cnc43)cc2NC2CC2)nn1 [Example 36, 2-(5-chloro-1H-pyrazolo[3,4-b]pyridin-1-yl)-N-cyclopropyl-5-(1-propyl-1H-1,2,3-triazol-4-yl)pyridin-4-amine]
27 |  |  | CC(C)Nc1cc(-n2ncc3cc(Cl)cnc32)ncc1-c1cn(C2COC2)nn1 [Example 26, 2-(5-chloro-1H-pyrazolo[3,4-b]pyridin-1-yl)-N-isopropyl-5-(1-(oxetan-3-yl)-1H-1,2,3-triazol-4-yl)pyridin-4-amine]
75 |  |  | COc1ccc(Cn2cc(-c3cnc(-n4ncc5cc(C#N)cnc54)cc3NC(C)C)nn2)cc1 [Example 110, 1-(4-(isopropylamino)-5-(1-(4-methoxybenzyl)-1H-1,2,3-triazol-4-yl)pyridin-2-yl)-1H-pyrazolo[3,4-b]pyridine-5-carbonitrile]
16 |  |  | CCC(C)(O)Cn1cc(-c2cnc(-n3cnc4cc(C#N)cnc43)cc2NC(C)C)nn1 (single isomer, unassigned) [Example 95, 3-(5-(1-(2-hydroxy-2-methylbutyl)-1H-1,2,3-triazol-4-yl)-4-(isopropylamino)pyridin-2-yl)-3H-imidazo[4,5-b]pyridine-6-carbonitrile]
10 |  |  | CCn1cc(-c2cnc(-n3cnc4cc(C#N)cnc43)cc2NC(C)C)nn1 [Example 38, 3-(5-(1-ethyl-1H-1,2,3-triazol-4-yl)-4-(isopropylamino)pyridin-2-yl)-3H-imidazo[4,5-b]pyridine-6-carbonitrile]
7 |  |  | CC(C)Nc1cc(-n2ncc3cc(C#N)cnc32)ncc1-c1cn(C2COC2)nn1 [Example 15, 1-(4-(isopropylamino)-5-(1-(oxetan-3-yl)-1H-1,2,3-triazol-4-yl)pyridin-2-yl)-1H-pyrazolo[3,4-b]pyridine-5-carbonitrile]
48 |  |  | CC(C)Nc1cc(-n2ncc3cc(C#N)cnc32)ncc1-n1cc(CO)nn1 [Example 295, 1-(5-(4-(hydroxymethyl)-1H-1,2,3-triazol-1-yl)-4-(isopropylamino)pyridin-2-yl)-1H-pyrazolo[3,4-b]pyridine-5-carbonitrile]
65 |  |  | CCn1cc(-c2cnc(-n3ncc4cc(C#N)cnc43)cc2NC(C)C)cn1 [Example 253, 1-(5-(1-ethyl-1H-pyrazol-4-yl)-4-(isopropylamino)pyridin-2-yl)-1H-pyrazolo[3,4-b]pyridine-5-carbonitrile]
 | 470 |  | CC(C)Nc1cc(-n2ncc3cc(C#N)cnc32)ncc1-c1cc([C@@H]2CCCCN2)on1 [Example 430, (S)-1-(4-(isopropylamino)-5-(5-(piperidin-2-yl)isoxazol-3-yl)pyridin-2-yl)-1H-pyrazolo[3,4-b]pyridine-5-carbonitrile]
115 |  |  | CC(C)Nc1cc(-n2ncc3cc(C#N)cnc32)ncc1-n1cc(-c2ccccn2)nn1 [Example 304, 1-(4-(isopropylamino)-5-(4-(pyridin-2-yl)-1H-1,2,3-triazol-1-yl)pyridin-2-yl)-1H-pyrazolo[3,4-b]pyridine-5-carbonitrile]
304 |  |  | CC(C)Nc1cc(-n2ncc3cc(C#N)cnc32)ncc1-n1cc(C(N)=O)nn1 [Example 309, 1-(6-(5-cyano-1H-pyrazolo[3,4-b]pyridin-1-yl)-4-(isopropylamino)pyridin-3-yl)-1H-1,2,3-triazole-4-carboxamide]
194 |  |  | CC(C)Nc1cc(-n2ncc3cc(C#N)cnc32)ncc1-n1cc(C(C)(C)O)nn1 [Example 298, 1-(5-(4-(2-hydroxypropan-2-yl)-1H-1,2,3-triazol-1-yl)-4-(isopropylamino)pyridin-2-yl)-1H-pyrazolo[3,4-b]pyridine-5-carbonitrile]
